Experimental findings from paper PMC6576746, “Rational discovery of dual-indication multi-target PDE/Kinase inhibitor for precision anti-cancer therapy using structural systems pharmacology” (PLoS Computational Biology, 2019) are described below.

What all share (experiment): biochemical
Set-up in all cases: DiscoverX KinomeScan competition binding assay across human kinases; per cent of control at 10 and 100 uM

One experiment concerns the target PIK3CA(Q546K) (Homo sapiens, UniProt P42336, Q546K). To be noted: competition binding, % of control; read-out: Percent Control (100 uM Levosimendan). In a few lines:
(§1)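 KinomeScan competition binding was run across a human kinase panel at 10 μM and 100 μM levosimendan. Results are %control = (test − positive control)/(negative control − positive control) × 100.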

Another experiment has as its target FGFR2 (Homo sapiens, UniProt P21802). To be noted: competition binding, % of control; read-out: Percent Control (100 uM Levosimendan). In a few lines:
as §1

The next experiment concerns the target CAMKK1 (Homo sapiens, UniProt Q8N5S9). To be noted: competition binding, % of control. In a few lines:
as §1

In a further experiment the target is T1, ERK2 (Homo sapiens, UniProt P28482).
T1 construct: gene MAPK1
To be noted: competition binding, % of control; read-out: Percent Control (100 uM Levosimendan). In a few lines:
as §1

Another experiment deals with CDK9 (Homo sapiens, UniProt P50750). To be noted: competition binding, % of control; read-out: Percent Control (100 uM Levosimendan). In a few lines: as §1
The target in a further experiment is BRSK2 (Homo sapiens, UniProt Q8IWQ3). To be noted: competition binding, % of control; read-out: Percent Control (100 uM Levosimendan). In a few lines:
as §1

A further experiment deals with MKNK2 (Homo sapiens, UniProt Q9HBH9). To be noted: competition binding, % of control. In a few lines:
as §1

The target in a further experiment is T2, MLK2 (Homo sapiens, UniProt Q02779).
T2 construct: gene MAP3K10
To be noted: competition binding, % of control; read-out: Percent Control (100 uM Levosimendan). In a few lines:
as §1

In a further experiment the target is T3, NIK (Homo sapiens, UniProt Q99558).
T3 construct: gene MAP3K14
To be noted: competition binding, % of control; read-out: Percent Control (100 uM Levosimendan). In a few lines:
as §1

The next experiment deals with T4, TRKC (Homo sapiens, UniProt Q16288).
T4 construct: gene NTRK3
T4 sequence (Q16288 whole entry): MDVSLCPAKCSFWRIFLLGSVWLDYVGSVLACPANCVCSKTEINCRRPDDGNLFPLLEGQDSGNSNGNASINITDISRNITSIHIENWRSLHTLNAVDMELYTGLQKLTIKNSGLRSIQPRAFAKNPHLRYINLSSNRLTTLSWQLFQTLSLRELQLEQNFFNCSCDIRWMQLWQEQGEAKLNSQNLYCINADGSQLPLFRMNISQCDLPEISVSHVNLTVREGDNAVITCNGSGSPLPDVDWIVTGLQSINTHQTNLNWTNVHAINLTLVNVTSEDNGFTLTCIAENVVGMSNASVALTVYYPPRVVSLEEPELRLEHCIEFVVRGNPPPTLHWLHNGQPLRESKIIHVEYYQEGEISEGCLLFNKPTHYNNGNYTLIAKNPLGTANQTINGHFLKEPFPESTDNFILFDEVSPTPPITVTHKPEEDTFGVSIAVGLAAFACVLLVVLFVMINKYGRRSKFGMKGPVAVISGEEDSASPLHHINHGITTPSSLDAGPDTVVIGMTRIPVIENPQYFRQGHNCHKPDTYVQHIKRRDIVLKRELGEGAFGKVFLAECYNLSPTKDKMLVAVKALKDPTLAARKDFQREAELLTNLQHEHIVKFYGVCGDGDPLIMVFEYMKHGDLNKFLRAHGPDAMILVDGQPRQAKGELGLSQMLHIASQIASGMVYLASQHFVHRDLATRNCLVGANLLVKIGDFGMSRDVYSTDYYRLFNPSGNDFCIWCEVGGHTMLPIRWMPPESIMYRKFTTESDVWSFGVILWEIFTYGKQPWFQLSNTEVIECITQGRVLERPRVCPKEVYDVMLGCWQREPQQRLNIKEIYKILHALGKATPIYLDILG
To be noted: competition binding, % of control; read-out: Percent Control (100 uM Levosimendan). In a few lines:
as §1

In a further experiment the target is ALK (Homo sapiens, UniProt Q9UM73). To be noted: competition binding, % of control; read-out: Percent Control (100 uM Levosimendan). In a few lines: as §1
In the next experiment the target is T5, ERK4 (Homo sapiens, UniProt P31152).
T5 construct: gene MAPK4
T5 sequence (P31152 whole entry): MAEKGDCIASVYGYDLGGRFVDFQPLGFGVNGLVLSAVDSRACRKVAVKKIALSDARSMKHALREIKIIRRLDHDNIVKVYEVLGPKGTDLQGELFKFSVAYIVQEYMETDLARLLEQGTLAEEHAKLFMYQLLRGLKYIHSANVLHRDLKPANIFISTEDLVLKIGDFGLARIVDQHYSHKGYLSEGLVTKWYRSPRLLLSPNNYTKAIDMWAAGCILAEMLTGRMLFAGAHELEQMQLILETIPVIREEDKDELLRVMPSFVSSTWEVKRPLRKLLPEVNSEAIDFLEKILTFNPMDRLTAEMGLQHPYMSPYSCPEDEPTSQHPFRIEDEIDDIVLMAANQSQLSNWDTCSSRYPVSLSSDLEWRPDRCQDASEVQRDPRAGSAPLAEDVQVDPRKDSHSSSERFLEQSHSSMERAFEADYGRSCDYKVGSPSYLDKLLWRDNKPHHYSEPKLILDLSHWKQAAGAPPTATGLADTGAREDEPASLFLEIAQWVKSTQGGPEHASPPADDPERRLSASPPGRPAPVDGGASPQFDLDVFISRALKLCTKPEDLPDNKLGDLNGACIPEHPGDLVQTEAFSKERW
To be noted: competition binding, % of control; read-out: Percent Control (100 uM Levosimendan). In a few lines:
as §1

A further experiment addresses HIPK4 (Homo sapiens, UniProt Q8NE63). To be noted: competition binding, % of control; read-out: Percent Control (100 uM Levosimendan). In a few lines: as §1
The next experiment addresses T6, PKAC-alpha (Homo sapiens, UniProt P17612).
T6 construct: gene PRKACA
To be noted: competition binding, % of control; read-out: Percent Control (100 uM Levosimendan). In a few lines: as §1

The next experiment deals with DMPK (Homo sapiens, UniProt Q09013). To be noted: competition binding, % of control. In a few lines:
as §1

The target in a further experiment is T7, YSK1 (Homo sapiens, UniProt O00506).
T7 construct: gene STK25
To be noted: competition binding, % of control; read-out: Percent Control (100 uM Levosimendan). In a few lines:
as §1

The next experiment addresses EGFR(S752-I759del) (Homo sapiens, UniProt P00533, DEL752-759). To be noted: competition binding, % of control; read-out: Percent Control (100 uM Levosimendan). In a few lines:
as §1

The target in the next experiment is T8, VPS34 (Homo sapiens, UniProt Q8NEB9).
T8 construct: gene PIK3C3
To be noted: competition binding, % of control; read-out: Percent Control (100 uM Levosimendan). In a few lines:
as §1

In the next experiment the target is T9, MLK1 (Homo sapiens, UniProt P80192).
T9 construct: gene MAP3K9
T9 sequence (P80192 whole entry): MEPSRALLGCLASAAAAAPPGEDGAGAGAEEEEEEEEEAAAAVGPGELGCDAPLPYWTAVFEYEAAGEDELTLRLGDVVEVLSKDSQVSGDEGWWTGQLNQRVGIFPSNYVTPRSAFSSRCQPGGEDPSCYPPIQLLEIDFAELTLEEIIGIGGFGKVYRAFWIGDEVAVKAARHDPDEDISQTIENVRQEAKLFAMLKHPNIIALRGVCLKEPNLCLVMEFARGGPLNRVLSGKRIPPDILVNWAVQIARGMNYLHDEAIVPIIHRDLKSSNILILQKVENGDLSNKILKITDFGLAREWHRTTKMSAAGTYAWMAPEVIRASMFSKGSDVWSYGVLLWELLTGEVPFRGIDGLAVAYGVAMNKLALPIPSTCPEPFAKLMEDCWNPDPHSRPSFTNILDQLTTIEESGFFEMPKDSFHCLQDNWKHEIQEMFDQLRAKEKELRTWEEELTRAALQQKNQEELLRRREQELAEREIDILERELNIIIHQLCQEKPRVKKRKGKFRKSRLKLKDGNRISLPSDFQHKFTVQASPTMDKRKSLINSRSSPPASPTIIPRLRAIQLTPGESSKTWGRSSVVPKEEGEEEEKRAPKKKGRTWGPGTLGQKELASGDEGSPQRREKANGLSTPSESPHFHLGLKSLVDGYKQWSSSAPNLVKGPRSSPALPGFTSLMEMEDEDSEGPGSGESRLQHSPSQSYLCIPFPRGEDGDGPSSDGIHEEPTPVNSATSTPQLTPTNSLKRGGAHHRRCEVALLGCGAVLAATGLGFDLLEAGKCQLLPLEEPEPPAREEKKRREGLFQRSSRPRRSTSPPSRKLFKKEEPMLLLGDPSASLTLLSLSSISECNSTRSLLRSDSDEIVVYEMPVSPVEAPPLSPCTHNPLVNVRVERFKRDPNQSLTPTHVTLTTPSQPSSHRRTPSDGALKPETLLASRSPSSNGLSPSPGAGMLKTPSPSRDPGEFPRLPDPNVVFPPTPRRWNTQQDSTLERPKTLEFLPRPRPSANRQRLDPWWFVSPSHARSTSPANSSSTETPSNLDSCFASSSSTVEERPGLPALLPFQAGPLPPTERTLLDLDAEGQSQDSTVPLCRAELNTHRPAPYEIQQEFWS
To be noted: competition binding, % of control; read-out: Percent Control (100 uM Levosimendan). In a few lines:
as §1

The mark [1] stands for this setting: read-out: Percent Control (10 uM Levosimendan).
Setting [2] is: read-out: Percent Control (100 uM Levosimendan).

CAMKK1, sequence (Q8N5S9 whole entry): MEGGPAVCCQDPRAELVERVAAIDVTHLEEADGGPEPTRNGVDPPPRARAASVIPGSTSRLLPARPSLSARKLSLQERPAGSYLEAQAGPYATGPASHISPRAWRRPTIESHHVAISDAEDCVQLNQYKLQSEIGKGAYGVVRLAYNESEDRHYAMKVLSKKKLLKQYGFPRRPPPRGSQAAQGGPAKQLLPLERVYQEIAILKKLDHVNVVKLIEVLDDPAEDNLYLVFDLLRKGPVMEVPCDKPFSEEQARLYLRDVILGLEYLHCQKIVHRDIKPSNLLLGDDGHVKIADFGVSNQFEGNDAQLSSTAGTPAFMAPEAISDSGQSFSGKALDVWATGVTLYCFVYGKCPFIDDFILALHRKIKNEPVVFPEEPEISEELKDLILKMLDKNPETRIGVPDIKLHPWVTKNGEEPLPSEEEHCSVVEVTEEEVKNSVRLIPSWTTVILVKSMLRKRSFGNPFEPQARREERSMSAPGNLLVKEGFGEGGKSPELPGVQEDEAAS
MKNK2, sequence (Q9HBH9 whole entry): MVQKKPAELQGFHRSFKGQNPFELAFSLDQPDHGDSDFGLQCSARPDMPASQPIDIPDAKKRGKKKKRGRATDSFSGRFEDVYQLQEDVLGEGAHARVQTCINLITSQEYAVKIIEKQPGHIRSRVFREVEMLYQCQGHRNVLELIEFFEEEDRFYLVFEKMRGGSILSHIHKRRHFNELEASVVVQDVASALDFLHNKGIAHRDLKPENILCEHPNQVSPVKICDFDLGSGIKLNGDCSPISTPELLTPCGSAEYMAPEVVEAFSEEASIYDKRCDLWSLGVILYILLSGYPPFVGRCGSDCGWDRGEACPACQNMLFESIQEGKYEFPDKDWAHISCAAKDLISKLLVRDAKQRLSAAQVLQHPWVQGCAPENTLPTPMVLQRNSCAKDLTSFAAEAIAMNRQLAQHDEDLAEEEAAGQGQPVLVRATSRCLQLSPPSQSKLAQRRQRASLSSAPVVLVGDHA
DMPK, sequence (Q09013 whole entry): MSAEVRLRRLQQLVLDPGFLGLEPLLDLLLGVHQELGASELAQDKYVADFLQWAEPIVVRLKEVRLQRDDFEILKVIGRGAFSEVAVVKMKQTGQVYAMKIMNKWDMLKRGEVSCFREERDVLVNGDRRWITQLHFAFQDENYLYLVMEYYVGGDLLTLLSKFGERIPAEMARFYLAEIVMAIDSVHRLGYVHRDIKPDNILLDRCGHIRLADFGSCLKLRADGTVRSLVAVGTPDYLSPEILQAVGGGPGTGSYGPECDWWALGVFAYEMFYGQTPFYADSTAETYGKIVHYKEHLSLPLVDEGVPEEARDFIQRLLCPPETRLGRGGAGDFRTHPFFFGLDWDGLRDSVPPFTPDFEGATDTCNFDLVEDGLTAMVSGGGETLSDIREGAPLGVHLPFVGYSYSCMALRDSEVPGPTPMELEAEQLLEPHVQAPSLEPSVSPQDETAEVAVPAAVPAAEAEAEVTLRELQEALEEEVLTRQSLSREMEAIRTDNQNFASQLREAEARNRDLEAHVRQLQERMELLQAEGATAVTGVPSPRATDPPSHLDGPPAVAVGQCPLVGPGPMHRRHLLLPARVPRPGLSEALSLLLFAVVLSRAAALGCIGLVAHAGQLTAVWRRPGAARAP
BRSK2, sequence (Q8IWQ3 whole entry): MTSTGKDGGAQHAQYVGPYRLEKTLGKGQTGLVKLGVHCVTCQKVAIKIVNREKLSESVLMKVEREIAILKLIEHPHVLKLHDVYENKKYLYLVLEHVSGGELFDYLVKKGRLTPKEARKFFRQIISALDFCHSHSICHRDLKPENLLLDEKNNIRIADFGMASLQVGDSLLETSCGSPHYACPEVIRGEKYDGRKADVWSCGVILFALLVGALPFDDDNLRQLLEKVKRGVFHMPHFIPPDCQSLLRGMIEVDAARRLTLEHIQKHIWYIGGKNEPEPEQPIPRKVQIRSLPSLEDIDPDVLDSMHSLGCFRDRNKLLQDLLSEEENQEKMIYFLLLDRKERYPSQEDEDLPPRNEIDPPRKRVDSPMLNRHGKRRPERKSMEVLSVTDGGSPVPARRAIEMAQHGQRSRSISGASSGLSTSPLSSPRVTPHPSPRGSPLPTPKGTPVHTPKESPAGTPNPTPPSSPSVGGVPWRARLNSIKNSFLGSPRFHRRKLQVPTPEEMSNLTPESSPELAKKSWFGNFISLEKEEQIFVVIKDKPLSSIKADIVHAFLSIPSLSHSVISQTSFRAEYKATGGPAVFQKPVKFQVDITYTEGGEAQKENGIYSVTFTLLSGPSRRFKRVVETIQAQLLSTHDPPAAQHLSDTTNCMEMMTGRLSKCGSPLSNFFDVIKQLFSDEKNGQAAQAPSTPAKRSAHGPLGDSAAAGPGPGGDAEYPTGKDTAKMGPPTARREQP

For `C[C@@H]1CC(=O)NN=C1c1ccc(NN=C(C#N)C#N)cc1` [levosimendan], the remaining binding at 100 µM on PIK3CA(Q546K) was determined as 100%; on FGFR2 it was 61%; at CAMKK1 (setting [2]) it was 51%; on ERK2, 100%; on CDK9 it was 100%; on BRSK2, 100%. For the same compound, the remaining binding at 100 µM was 7.5% at MKNK2 (setting [2]); 81% at MLK2; 83% on NIK; 65% on TRKC; 76% on ALK; 100% on ERK4. Further, the remaining binding at 100 µM was found to be 84% at HIPK4; 94% at PKAC-alpha; 29% on DMPK (setting [2]); 100% at YSK1; 91% at EGFR(S752-I759del); 100% on VPS34. On MLK1, the remaining binding at 100 µM was determined as 79%. Further, the values for the remaining binding at 10 µM at CAMKK1 (setting [1]), on MKNK2 (setting [1]) and on DMPK (setting [1]) were 82%, 59% and 100%, respectively.
